Source: US9365583B2, “Substituted pyrazoles and uses thereof” (Genentech, Inc., priority 2013, dated 2016)

Biological target: T1, N-terminally GST-tagged DLK (catalytic domain amino acid 1-520) (Homo sapiens, UniProt Q12852)
T1 construct: N-terminally GST-tagged DLK (catalytic domain amino acid 1-520); purchased Carna Bioscience
T1 sequence (Q12852 1-520): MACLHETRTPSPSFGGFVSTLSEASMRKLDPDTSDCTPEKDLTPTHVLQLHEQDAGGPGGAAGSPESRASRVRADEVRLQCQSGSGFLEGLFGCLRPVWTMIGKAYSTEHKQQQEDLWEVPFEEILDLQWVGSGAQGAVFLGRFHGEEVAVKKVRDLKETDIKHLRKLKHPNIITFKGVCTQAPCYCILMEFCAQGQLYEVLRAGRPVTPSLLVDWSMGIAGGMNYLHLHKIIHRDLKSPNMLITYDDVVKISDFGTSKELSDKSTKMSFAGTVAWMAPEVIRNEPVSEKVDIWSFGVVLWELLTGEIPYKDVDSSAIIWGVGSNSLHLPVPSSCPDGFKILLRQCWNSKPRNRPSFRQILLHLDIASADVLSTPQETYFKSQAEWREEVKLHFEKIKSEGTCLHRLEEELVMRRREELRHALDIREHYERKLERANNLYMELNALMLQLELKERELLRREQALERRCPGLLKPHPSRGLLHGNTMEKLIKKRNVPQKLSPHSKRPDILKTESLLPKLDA
Test: DLK TR-FRET inhibition assay
Format: biochemical
Conditions: 5 nM GST-DLK, 40 nM HIS-MKK4 K131M substrate, 30 μM ATP, 60 minutes at ambient temperature
Procedure, shortened: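 5 nM GST-DLK (aa 1-520), 40 nM HIS-MKK4 K131M and 30 μM ATP reacted 60 min at ambient temperature in HEPES pH 7.5 buffer with 10 mM MgCl2, compound 1:3 serially diluted from 20 uM. TR-FRET detection of phospho-MKK4 used Eu-cryptate anti-phospho-MKK4 plus D2 anti-HIS, read after 3 h (665/615 nm).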

Ki	SMILES
2.92 nM	CCN1CCN([C@@H]2C[C@@H]3[C@H](C2)[C@H]3c2cc(-c3cnc(N)c(C(F)(F)F)c3)nn2C(C)C)CC1 [compound 17, 5-(5-((1R,3s,5S,6r)-3-(4-ethylpiperazin-1-yl)bicyclo[3.1.0]hexan-6-yl)-1-isopropyl-1H-pyrazol-3-yl)-3-(trifluoromethyl)pyridin-2-amine]
2.3 nM	CC(C)n1nc(-c2cnc(N)c(C(F)(F)F)c2)cc1[C@H]1[C@@H]2CC(N3CC4COCC4C3)C[C@@H]21 (single isomer, unassigned) [compound 277]
9.19 nM	CC(C)n1nc(-c2cnc(N)c(C(F)(F)F)c2)cc1[C@H]1[C@@H]2C[C@H](n3ccnc3)C[C@@H]21 [compound 115, 5-(5-((1R,3r,5S,6r)-3-(1H-imidazol-1-yl)bicyclo[3.1.0]hexan-6-yl)-1-isopropyl-1H-pyrazol-3-yl)-3-(trifluoromethyl)pyridin-2-amine]
≥ 321 nM	Nc1ncc(-c2cc([C@H]3[C@@H]4C[C@@H](N5CCOCC5)C[C@@H]43)nn2C2CCC2)cc1OC(F)F [compound 133, 5-(1-cyclobutyl-3-((1R,3s,5S,6r)-3-morpholinobicyclo[3.1.0]hexan-6-yl)-1H-pyrazol-5-yl)-3-(difluoromethoxy)pyridin-2-amine]
1.8 nM	CC(C)n1nc(-c2cnc(N)c(OC(F)F)c2)cc1[C@H]1[C@@H]2C[C@@H](N3CCN(C)CC3)C[C@@H]21 [compound 199, 3-(difluoromethoxy)-5-(1-isopropyl-5-((1R,3s,5S,6r)-3-(4-methyl-piperazin-1-yl)bicyclo[3.1.0]hexan-6-yl)-1H-pyrazol-3-yl) pyridin-2-amine]
4.1 nM	COC1CN([C@@H]2C[C@@H]3[C@H](C2)[C@H]3c2cc(-c3cnc(N)c(C(F)(F)F)c3)nn2CC(F)F)C1 [compound 149, 5-(1-(2,2-difluoroethyl)-5-((1R,3s,5S,6r)-3-(3-methoxyazetidin-1-yl)bicyclo[3.1.0]hexan-6-yl)-1H-pyrazol-3-yl)-3-(trifluoromethyl) pyridin-2-amine]
0.74 nM	CC(C)n1nc(-c2cnc(N)c(OC(F)F)c2)cc1[C@H]1[C@@H]2C[C@@H](N3CCO[C@@H](C)C3)C[C@@H]21 [compound 75, 3-(difluoromethoxy)-5-(1-isopropyl-5-((1R,3s,5S,6S)-3-((S)-2-methylmorpholino)bicyclo[3.1.0]hexan-6-yl)-1H-pyrazol-3-yl) pyridin-2-amine]
7.8 nM	CC(C)n1nc(-c2cnc(N)c(C(F)(F)F)c2)cc1[C@H]1[C@@H]2CC(C#N)C[C@@H]21 (single isomer, unassigned) [compound 191]
1.1 nM	Nc1ncc(-c2cc([C@H]3[C@@H]4C[C@@H](N5CCCOCC5)C[C@@H]43)n(CC(F)F)n2)cc1OC(F)(F)F [compound 243, 5-(5-((1R,3s,5S,6r)-3-(1,4-oxazepan-4-yl)bicyclo[3.1.0]hexan-6-yl)-1-(2,2-difluoroethyl)-1H-pyrazol-3-yl)-3-(trifluoromethoxy) pyridin-2-amine]
3.1 nM	CC(C)n1nc(-c2cnc(N)c(OC(F)(F)F)c2)cc1[C@H]1[C@@H]2C[C@@H](N(C)C3COC3)C[C@@H]21 [compound 48, 5-(1-isopropyl-5-((1R,3s,5S,6r)-3-(methyl(oxetan-3-yl)amino)bicyclo[3.1,0]hexan-6-yl)-1H-pyrazol-3-yl)-3-(trifluoromethoxy) pyridin-2-amine]
0.9 nM	CC(C)n1nc(-c2cnc(N)c(OC(F)(F)F)c2)cc1[C@H]1[C@@H]2C[C@@H](N3CCCN(C)CC3)C[C@@H]21 [compound 203, 5-(1-isopropyl-5-((1R,3s,5S,6r)-3-(4-methyl-1,4-diazepan-1-yl)bicyclo[3.1.0]hexan-6-yl)-1H-pyrazol-3-yl)-3-(trifluoromethoxy) pyridin-2-amine]
3.4 nM	CC(C)n1nc(-c2cnc(N)c(C(F)(F)F)c2)cc1[C@H]1[C@@H]2CC(N3CCN4CCOCC4C3)C[C@@H]21 (single isomer, unassigned) [compound 196]
1.3 nM	Nc1ncc(-c2cc([C@H]3[C@@H]4C[C@H](N5CCOCC5)C[C@@H]43)n(CC3CC3)n2)cc1OC(F)F [compound 274, 5-(1-(cyclopropylmethyl)-5-((1R,3r,5S,6r)-3-morpholinobicyclo [3.1.0]hexan-6-yl)-1H-pyrazol-3-yl)-3-(difluoromethoxy)pyridin-2-amine]
1.1 nM	CC(C)n1nc(-c2cnc(N)c(OC(F)(F)F)c2)cc1[C@H]1[C@@H]2C[C@H](N3CCNCC3)C[C@@H]21 [compound 244, 5-(1-isopropyl-5-((1R,3r,5S,6r)-3-(piperazin-1-yl)bicyclo[3.1.0]hexan-6-yl)-1H-pyrazol-3-yl)-3 - (trifluoromethoxy)pyridin-2-amine]
209 nM	Nc1ncc(-c2cc([C@@H]3[C@@H]4C[C@H](N5CCOCC5)C[C@@H]43)n(CC3CC3)n2)cc1OC(F)(F)F [compound 283, 5-(1-(cyclopropylmethyl)-5-((1R,3r,5S,6s)-3-morpholinobicyclo [3.1.0]hexan-6-yl)-1H-pyrazol-3-yl)-3-(tritluoromethoxy) pyridin-2-amine]
0.98 nM	CO[C@H]1CCN([C@H]2C[C@@H]3[C@H](C2)[C@H]3c2cc(-c3cnc(N)c(OC(F)(F)F)c3)nn2C(C)C)C1 [compound 23, 5-(1-isopropyl-5-((1R,3r,5S,6S)-3-((S)-3-methoxypyrrolidin-1-yl)bicyclo[3.1.0]hexan-6-yl)-1H-pyrazol-3-yl)-3-(trifluoro-methoxy)pyridin-2-amine]
4.82 nM	Nc1ncc(-c2cc([C@H]3[C@@H]4C[C@@H](N5CCOCC5)C[C@@H]43)n(C3CCCC3)n2)cc1OC(F)F [compound 130, 5-(1-cyclopentyl-5-((1R,3s,5S,6r)-3-morpholinobicyclo[3.1.0]hexan-6-yl)-1H-pyrazol-3-yl)-3-(difluoromethoxy)pyridin-2-amine]
3 nM	CC(=O)N(C)[C@H]1C[C@@H]2[C@H](C1)[C@H]2c1cc(-c2cnc(N)c(C(F)(F)F)c2)nn1C(C)C [compound 182, N-((1R,5S,6r)-6-(3-(6-amino-5-(trifluoromethyl)pyridin-3-yl)-1-isopropyl-1H-pyrazol-5-yl)bicyclo [3.1.0]hexan-3-yl)-N-methylacetamide]
1.16 nM	CC(C)n1nc(-c2cnc(N)c(OC(F)(F)F)c2)cc1[C@H]1[C@@H]2C[C@@H](N3CCCOCC3)C[C@@H]21 [compound 99, 5-(5-((1R,3s,5S,6r)-3-(1,4-oxazepan-4-yl)bicyclo[3.1.0]hexan-6-yl)-1-isopropyl-1H-pyrazol-3-yl)-3-(trifluoromethoxy)pyridin-2-amine]
2.26 nM	CC(C)n1nc(-c2cnc(N)c(OC(F)(F)F)c2)cc1[C@H]1[C@@H]2C[C@@H](N3CCN(C)CC3)C[C@@H]21 [compound 66, 5-(1-isopropyl-5-((1R,3s,5S,6r)-3-(4-methylpiperazin-1-yl)bicyclo [3.1.0]hexan-6-yl)-1H-pyrazol-3-yl)-3-(trifluoromethoxy) pyridin-2-amine]
5.6 nM	COCCO[C@H]1C[C@@H]2[C@H](C1)[C@H]2c1cc(-c2cnc(N)c(C(F)(F)F)c2)nn1C(C)C [compound 272, 5-(1-isopropyl-5-((1R,3r,5S,6r)-3-(2-methoxyethoxy)bicyclo [3.1.0]hexan-6-yl)-1H-pyrazol-3-yl)-3-(trifluoromethyl)pyridin-2-amine]
